Experiments:
[1] = tested on: mammary cancer (tubulo-pillaryadenocarcinoma or mixed-type tumour); test: Gallium chloride therapy in bitches with mammary cancer (primary tumour or recurrence); type: in vivo, female dogs
Protocol: The anti-tumoral effect of gallium chloride was firstly studied in female dogs having spontaneous malignant tumours of the breast. Gallium chloride therapy was carried out in bitches having a mammary cancer (tubulo-pillaryadenocarcinoma or mixed-type tumour); treatment started either at the stage of the primary tumour (4 bitches) or upon a recurrence after a surgical excision (10 bitches).
(1) In the 4 bitches treated at the primary tumour stage, the following was observed:
In two cases, the treatment was continued for two months, the tumour reducing from 10×7 cm to 8.5×7 cm in one case and from 1.5×1.3 to 1.5×1.0 cm in the other case.
In the third case, the treatment could be continued for more than six months in a very old bitch of 14 years.
(2) In the 10 bitches treated at the recurrence stage, the following was observed: […]

[2] = Clinical and biological tolerance in patients
Protocol: Mrs. […] Post-operative chemotherapy (5-fluoro-uracil and endoxan) was then effected up to April 1979. At that time, […] underwent a second operation with excision of the remaining cervix and omentectomy. […] Cobalt therapy was then carried out from Nov. 5th, 1979 to Feb. 5th, 1980 on the abdomen, pelvis and diaphragm cupolas, then further chemotherapy (hexamethylmelamine) from August to October 1980. […] Treatment by gallium chloride started on Nov. 1 st, 1980 at the posology of 300 mg per day per os in three doses of 100 mg. […] An echotomograph on Dec. […] A third echotomograph was made on Jan. […] On Mar.
The treatment by gallium chloride was started on May 15th, 1981, at the posology of 600 mg/24 hours up to Sept. 20th, 1981, in association with a heparinotherapy at mini-doses. This heparinotherapy had been prescribed to prevent a phlebitis or pulmonary embolism following the surgical operation of April 1981 and had not been interrupted in order not to provoke the phenomenon of tumoral flare-up. [Calciparin (heparin calcium salt) 0.2 ml, 3 times per day by sub-cutaneous route]. […] On Sept. […] This was the case. . . […] 29th, 1981. […] Up to Nov. […] It was from Sept.
HOT... […] , was operated on May 14th, 1981 for an adenocarcinoma of the colon. […] An almost total colectomy was carried out, leaving 20 cm of sigmoid and a resection of the small bowel over a length of 15 cm. […] On Oct. […] An exploratory laparotomy was made on Nov. […] 7th, 1982.
Gallium chloride therapy was started on Sept.

[3] = tested on: left axillary lymphadenopathy; test: 2nd patient: gallium chloride treatment, tumour response
Excerpt: A complete check-up to seek primary localisation was undertaken. In view of the negative nature of this check-up, the diagnosis of cutaneous primary tumour, developed at the expense of the cutaneous appendants (eccrine tumour) was retained.

[4] = tested on: adenocarcinoma of the colon; test: 4th patient: gallium chloride treatment, tumour response; type: in vivo, human
Excerpt: (§1) A person . . . […] On Oct. […] An exploratory laparotomy was made on Nov. […] 7th, 1982.

[5] = tested on: malignant melanoma; test: 3rd patient: gallium chloride treatment, tumour response; type: in vivo, human
Excerpt: On Sept. […] This was the case. . . […] Up to Nov. […] It was from Sept.

[6] = Acute toxicity on the mouse; type: in vivo; details: per os
[7] = tested on: globular Mg; test: Globular Mg rates in patients in the course of treatment; type: in vivo, human
Excerpt: The importance of checking the globular Mg rates was furthermore clearly illustrated by the following two observations (3rd and 4th patients).
On Sept. […] This was the case. . . […] 29th, 1981. This posology was tolerated up to Nov. […] Up to Nov. […] It was from Sept.
as §1
FIGS. 1, 2 and 3 show the curves of the globular Mg (1) and plasmatic Mg (2) rates as a function of time in the course of treatment by gallium chloride (the starting point of the curves corresponding to the first administration) of the three patients. A person […] (1st patient, […] (3rd Patient) and a person […] (4th patient, respectively.
To follow the globular Mg rates, the dosages must be frequent and repeated, about once a week. In fact, there are cyclic variations of the globular Mg rates with a curve of sinusoidal appearance, and the period of these cycles, like the importance of the globular Mg rates, are a function of the evolutive potential of the malignant tumour (P. COLLERY et col. "Role of Magnesium in the Development of Cancer", Trace Substances in Environmental Health, XII, 1978--A Symposium--University of Missouri--Columbia). The appearance of this curve is modified, as indicated above, by the anti-tumoral therapy by gallium chloride.

[8] = tested on: adenocarcinoma; test: Long-term treatment of two bitches with evolutive third recurrence of mammary tumour; type: in vivo, female dogs
[9] = 800 mg/24 hours oral, one month
[10] = therapy continued up to Nov. 10th, 1981

[Cl][Ga]([Cl])[Cl] [gallium chloride]
results in mammary tumours in the bitch ([1]; 5 mg/kg, if duration of treatment extended): good results | regression of the tumour, overall ([1]; 5 mg/kg, tumour becomes very hard): Regression of the tumour remains weak | regression of the tumour (primary tumour stage) ([1]; 4 bitches treated at primary tumour stage): a regression of the tumour in the other three cases | death (primary tumour stage) ([1]; 4 bitches treated at primary tumour stage, 1 to 5 mg/kg oral): one death on the 7th day | complete remission ([1]; 10 bitches at recurrence stage, recurrent tumour smaller than 0.6 cm at beginning, two months of treatment): three complete remissions after two months of treatment | partial regression of the tumour ([1]; 10 bitches at recurrence stage, three months of treatment): in 5 bitches, a partial regression of the tumour with hardening thereof | death (recurrence stage) ([1]; 10 bitches treated at recurrence stage): one death in the third week of treatment, due to a pulmonary metastasis | biopsies / histology at the end of the treatment ([1]; recurrence stage): tumoral cells persisted, but a histological study suggested an increase in the amorphous ground substance with a cellular rarefaction | tumour growth in one bitch ([1]; recurrence stage, 1 mg/kg one month, 2.5 mg/kg fifteen days, 5 mg/kg last fifteen days): persistent growth of the tumour in one bitch | survival ([1]; therapeutic strategy with surgical treatment after gallium chloride): seven out of eight bitches are alive | tumour response after resumption of the treatment ([1]; third case, bitch of 14 years, 2.5 mg/kg, then 1 mg/kg): regressed after resumption of the treatment | tumour development during first two months of treatment ([1]; third case, bitch of 14 years, 5 mg/kg, tumour 3.6×2 cm, doubled in four months preceding treatment): did not develop | clinical and biological tolerance, 1st patient ([2]; 300 mg per day per os, two months uninterrupted): good | renal, hepatic, blood cells count disturbance, 5th patient [2, 9]: no renal nor hepatic disturbance nor disturbances in the blood cells count | tolerance, 5th patient [2, 9]: tolerated perfectly well, both from the clinical and biological point of view | anorexia leading to stop of therapy, 3rd patient ([2]; 800 mg/24 hours, from Nov. 27th, 1981): virtually total anorexia | tolerance, 4th patient ([2]; 500 then 300 mg/24 hours oral, without renal disorders): perfect clinically and biologically (without renal disorders in particular) | blood cells count, hepatic balance, calcemia, phosphatemia, 2nd patient ([2]; Jan. 6th, 1982): normal | general state, 2nd patient ([2]; Jan. 6th, 1982): good, with a normal appetite | inflammatory balance (haptoglobin), 2nd patient ([2]; Jan. 6th, 1982): normal | creatinine, 2nd patient ([2]; Jan. 6th, 1982, normal): 88.50 µmol/L | tolerance, 2nd patient ([2]; Jan. 6th, 1982, oral since May 20th, 1981): perfectly well tolerated, without any digestive disorders or neurological, cardiac or cutaneous effects | weight, 2nd patient ([2]; Jan. 6th, 1982, unchanged since beginning of treatment): 71 kg | tolerance of 800 mg/24 hours, 3rd patient ([2]; Sept. 29th to Nov. 27th, 1981): tolerated up to Nov. 27th, 1981 | digestive intolerance leading to interruption, 1st patient ([2]; after Mar. 20th, 1981): had to be interrupted due to digestive intolerance | renal function and blood cells count, 3rd patient ([2]; up to Nov. 27th, 1981): normal | weight, 3rd patient ([2]; up to Sept. 20th, 1981, 600 mg/24 hours with Calciparin, stable): 70 kg | hardness of lymphadenopathy, July 23rd, 1981 ([3]; 300 mg per day oral): much harder | lymphadenopathy, Jan. 6th, 1982 ([3]; 600 mg and 300 mg alternately, oral): no longer perceptible | diameter of lymphadenopathy, Dec. 8th, 1981 ([3]; 600 mg per day oral): 1 cm in diameter | dorsal osseous pains, 2nd patient ([3]; Jan. 6th, 1982): dorsal osseous pains persisted, but of mechanical type, completely calmed by rest | regression of the lymphadenopathy ([3]; oral from May 20th, 1981, from end of July 1981): progressive regression of the lymphadenopathy | prevention of recurrence, 4th patient ([4]; 300 ng per day (so in the source), up to Nov. 10th, 1981): insufficient | carcinoembryonic antigen rates, 4th patient, Oct. 15th, 1981 ([4]; 300 mg/24 hours oral): 9 ng/mL | carcinoembryonic antigen rates, first 4 months, 4th patient ([4]; 500 then 300 mg/24 hours oral): normal | general state, first 4 months, 4th patient ([4]; 500 then 300 mg/24 hours oral): very satisfactory | exploratory laparotomy, 4th patient ([4]; Nov. 12th, 1981): an indissectable ileomesenteric block and hepatic granulations distributed like grains of rice over the whole of the two lobes of the liver | carcinoembryonic antigen rates, 4th patient, Nov. 26th, 1981 [4, 10]: 97 ng/mL | death, 4th patient [4, 10]: death occured on Jan. 7th, 1982 | general state up to Sept. 20th, 1981, 3rd patient ([5]; 600 mg/24 hours with Calciparin): satisfactory, with a good appetite | general state / metastases after Calciparin interruption, 3rd patient ([5]; gallium chloride increased to 800 mg/24 hours from Sept. 29th, 1981): general state rapidly worsened, with appearance of a metastatic hepatomegaly of which the volume increased rapidly | LD50 [6]: 1790 mg/kg | globular magnesium rates, 4th patient, Oct. 15th, 1981 ([7]; 300 mg/24 hours oral): 3.00 mmol/L | globular magnesium rates, 3rd patient, Oct. 6th, 1981 ([7]; 800 mg/24 hours, after heparinotherapy stopped): 2.96 mmol/L | globular magnesium rates, curves of FIGS. 1-3 ([7]; 1st, 3rd and 4th patients, when treatment is efficacious): decrease | globular Mg rates, first 4 months, 4th patient ([7]; 500 then 300 mg/24 hours oral): normal | correlation between clinical state, carcinoembryonic antigen and globular magnesium rates, 4th patient ([7]; human, in vivo): could be emphasized | size of the tumour, second bitch (BEL), 4.1.1981 ([8]; 2.5 mg/kg per os from 27.2.1981, 1.2 cm on 2.27.1981): 1.8 cm in diameter | size of the tumour, second bitch (BEL), 4.30.1981 ([8]; 2.5 mg/kg per os to 30.4.1981): 2.3 cm in diameter | tumour evolution after 10.14.1981, first bitch (OUD) ([8]; 10 mg/kg per os, up to Dec. 28th, 1981): tumoral stabilisation | pulmonary radiograph, second bitch (BEL) ([8]; 5.1.1982): normal | death, first bitch (OUD) ([8]; Dec. 28th, 1981, good general state during preceding days): suddenly died (good general state during the preceding days) of a myocardial infarction with acute oedema of the lung and overall heart failure | autopsy, first bitch (OUD) ([8]; after death Dec. 28th, 1981): no hepatic nor pulmonary metastases a small nodule of 1 cm in the spleen | tumour growth after 9.1.1981, second bitch (BEL) ([8]; per os): the growth clearly slowed down with an obvious change in the consistency of the tumour | tumour growth since Nov. 3rd, 1981, second bitch (BEL) ([8]; up to surgical excision): virtually not enlarged since Nov. 3rd, 1981 | excised piece, second bitch (BEL) ([8]; upon opening of excised tumour): considerable necrosis occupying virtually all the tumour

— patent US4596710A, “Gallium chloride as a new anti-cancerous drug” (priority 1981, dated 1986)
